PubChem BioAssay AID330 (DTP/NCI, 2004)
“And” between values parts separate entries of the source, which are not always exact repeats. Identical values can stand only once. Inconclusive results and toxic doses are left out.

Test system: P388 leukemia ip, CD2F1 mice, survival T/C
Assay: NCI In Vivo Anticancer Drug Screen. Data for tumor model P388 Leukemia (intraperitoneal) in CD2F1 (CDF1) mice
Settings: endpoint: median survival time, higher = longer survival
Summary of the method: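 Mice carrying the transplanted tumor received test compound or vehicle. Survival was recorded in each group, and the value is the treated-group measurement divided by that of the vehicle-treated control group.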

[1] = dose: 50.0 mg/kg/injection, schedule: Q01DX005 (ip), vehicle: Klucel (hydroxypropylcellulose) (HPC)
[2] = dose: 100.0 mg/kg/injection, schedule: Q01DX005 (ip), vehicle: Klucel (hydroxypropylcellulose) (HPC)
[3] = dose: 200.0 mg/kg/injection, schedule: Q01DX005 (ip), vehicle: Klucel (hydroxypropylcellulose) (HPC)
[4] = dose: 60.0 mg/kg/injection, schedule: Q01DX005 (ip), vehicle: saline with Tween-80
[5] = dose: 120.0 mg/kg/injection, schedule: Q01DX005 (ip), vehicle: saline with Tween-80
[6] = dose: 240.0 mg/kg/injection, schedule: Q01DX005 (ip), vehicle: saline with Tween-80
[7] = dose: 50.0 mg/kg/injection, schedule: Q01DX009 (ip), vehicle: Klucel (hydroxypropylcellulose) (HPC)
[8] = dose: 60.0 mg/kg/injection, schedule: Q01DX005 (ip), vehicle: saline
[9] = dose: 120.0 mg/kg/injection, schedule: Q01DX005 (ip), vehicle: saline

COC1(OC)CCN2OC(CO)CC21 (stereo not given)
T/C (dose: 25.0 mg/kg/injection, schedule: Q04DX003 (ip), vehicle: saline with Tween-80): 103 % of control
T/C (dose: 50.0 mg/kg/injection, schedule: Q04DX003 (ip), vehicle: saline with Tween-80): 100 % of control
T/C (dose: 100.0 mg/kg/injection, schedule: Q04DX003 (ip), vehicle: saline with Tween-80): 100 % of control and 101 % of control

CSCCC(NCC(=O)Nc1ccc(S(=O)(=O)c2ccc(NC(=O)CNC(CCSC)C(=O)O)cc2)cc1)C(=O)O (stereo not given)
T/C [1]: 100 % of control
T/C [2]: 101 % of control
T/C [3]: 101 % of control

O=C(O)C1CCC(=O)N1Cc1csc(-c2ccccc2)n1 (stereo not given)
T/C [4]: 103 % of control
T/C [5]: 93 % of control
T/C [6]: 99 % of control

NC1=NC2CC(N1)c1ccc(O)cc1O2 (stereo not given)
T/C (dose: 50.0 mg/kg/injection, schedule: Q01DX009 (ip), vehicle: saline): 109 % of control
T/C (dose: 100.0 mg/kg/injection, schedule: Q01DX009 (ip), vehicle: saline): 110 % of control

COc1cc2cc(c1Cl)N1CC(O)C(C)(O)C(=O)NC(C)C(=O)OC(CC1=O)C1(C)OC1C(C)C1CC(O)(NC(=O)O1)C(OC)/C=C\C=C(\C)C2OC (stereo not given)
T/C (dose: 7.75 micrograms/kg/injection, schedule: Q01DX009 (ip), vehicle: none): 153 % of control
T/C (dose: 15.5 micrograms/kg/injection, schedule: Q01DX009 (ip), vehicle: none): 159 % of control

CCOC(=O)CNC(=O)Nc1ccc(S(=O)(=O)Nc2nc(C)cc(C)n2)cc1
T/C [7]: 102 % of control
T/C (dose: 100.0 mg/kg/injection, schedule: Q01DX009 (ip), vehicle: Klucel (hydroxypropylcellulose) (HPC)): 100 % of control
T/C (dose: 200.0 mg/kg/injection, schedule: Q01DX009 (ip), vehicle: Klucel (hydroxypropylcellulose) (HPC)): 100 % of control

O=C(OC1(c2nccc3ccccc23)CCCCC1)c1ccccc1
T/C (dose: 25.0 mg/kg/injection, schedule: Q01DX009 (ip), vehicle: Klucel (hydroxypropylcellulose) (HPC)): 97 % of control
T/C [7]: 93 % of control
T/C (dose: 100.0 mg/kg/injection, schedule: Q01DX001 (ip), vehicle: Klucel (hydroxypropylcellulose) (HPC)): 103 % of control
T/C (dose: 200.0 mg/kg/injection, schedule: Q01DX001 (ip), vehicle: Klucel (hydroxypropylcellulose) (HPC)): 94 % of control
T/C (dose: 400.0 mg/kg/injection, schedule: Q01DX001 (ip), vehicle: Klucel (hydroxypropylcellulose) (HPC)): 92 % of control

CS1(C)=Nc2c([N+](=O)[O-])cc([N+](=O)[O-])cc2S(=O)(=O)N=1
T/C [4]: 98 % of control
T/C [5]: 94 % of control
T/C [6]: 94 % of control

COc1nsc2ccc(C(C)C(N)=O)cc12 (stereo not given)
T/C [4]: 100 % of control
T/C [5]: 97 % of control
T/C [6]: 89 % of control

COc1cccc(C(=O)c2ccccc2C(=O)O)c1
T/C [1]: 101 % of control
T/C [2]: 105 % of control
T/C [3]: 103 % of control

N[C@H](C(=O)O)[C@@H]1CC(S(=O)(=O)c2ccccc2)=NO1
T/C (dose: 12.5 mg/kg/injection, schedule: Q01DX005 (ip), vehicle: distilled water + Tween-80): 102 % of control
T/C (dose: 25.0 mg/kg/injection, schedule: Q01DX005 (ip), vehicle: distilled water + Tween-80): 102 % of control

O=c1oc2c(ccc3c(O)cccc32)c2c1CCCC2
T/C [1]: 105 % of control
T/C [2]: 102 % of control
T/C [3]: 93 % of control

NNC(=O)C(O)C(O)C(=O)NN (stereo not given)
T/C (dose: 30.0 mg/kg/injection, schedule: Q01DX005 (ip), vehicle: saline): 97 % of control
T/C (dose: 30.0 mg/kg/injection, schedule: Q01DX009 (ip), vehicle: saline): 103 % of control
T/C [8]: 100 % of control
T/C (dose: 60.0 mg/kg/injection, schedule: Q01DX009 (ip), vehicle: saline): 97 % of control
T/C [9]: 94 % of control
T/C (dose: 120.0 mg/kg/injection, schedule: Q01DX009 (ip), vehicle: saline): 105 % of control

Nc1ccc(OCCNC(=O)c2ccc(S(=O)(=O)F)cc2)c(Cl)c1
T/C (dose: 100.0 mg/kg/injection, schedule: Q01DX001 (ip), vehicle: saline with Tween-80): 90 % of control
T/C (dose: 200.0 mg/kg/injection, schedule: Q01DX001 (ip), vehicle: saline with Tween-80): 100 % of control
T/C (dose: 400.0 mg/kg/injection, schedule: Q01DX001 (ip), vehicle: saline with Tween-80): 104 % of control

COC(=O)C1(C(C)C(=O)c2ccc(Cl)cc2)NC(=S)NC(=O)C1C#N (stereo not given)
T/C [8]: 104 % of control
T/C [9]: 106 % of control
T/C (dose: 240.0 mg/kg/injection, schedule: Q01DX005 (ip), vehicle: saline): 108 % of control

CC(O)(CO)C(C)(O)c1cn(O)c(=N)c(C(=O)OCc2ccccc2)n1 (stereo not given)
T/C (dose: 100.0 mg/kg/injection, schedule: Q01DX001 (ip), vehicle: saline): 99 % of control
T/C (dose: 200.0 mg/kg/injection, schedule: Q01DX001 (ip), vehicle: saline): 95 % of control
T/C (dose: 400.0 mg/kg/injection, schedule: Q01DX001 (ip), vehicle: saline): 88 % of control
